The values below come from patent US9708297B2, “CGRP receptor antagonists” (Eli Lilly and Company, priority 2015, dated 2017).

For orientation: Kb means the equilibrium dissociation constant of an antagonist, usually derived from a functional assay.

Structures are written as SMILES.

T1 sequence (Q16602 23-461): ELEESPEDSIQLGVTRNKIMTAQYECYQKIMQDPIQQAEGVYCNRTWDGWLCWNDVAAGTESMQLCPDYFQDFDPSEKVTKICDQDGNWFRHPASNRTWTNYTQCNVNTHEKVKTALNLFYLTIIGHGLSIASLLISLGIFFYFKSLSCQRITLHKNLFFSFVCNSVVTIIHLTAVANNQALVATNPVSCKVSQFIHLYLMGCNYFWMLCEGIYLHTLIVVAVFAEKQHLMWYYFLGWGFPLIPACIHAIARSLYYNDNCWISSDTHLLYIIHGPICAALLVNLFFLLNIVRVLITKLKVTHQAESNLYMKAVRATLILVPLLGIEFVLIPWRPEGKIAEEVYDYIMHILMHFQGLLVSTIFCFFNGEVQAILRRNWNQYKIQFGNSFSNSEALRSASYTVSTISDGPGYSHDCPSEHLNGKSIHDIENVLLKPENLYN
T1 sequence (O60894 27-148): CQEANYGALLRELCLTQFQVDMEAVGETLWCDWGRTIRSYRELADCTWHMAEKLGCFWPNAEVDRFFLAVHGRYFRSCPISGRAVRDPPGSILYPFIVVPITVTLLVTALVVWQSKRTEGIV

One test concerns CGRP receptor. Put plainly: Capsaicin-induced dermal blood flow (DBF), laser Doppler imaging, in nonhuman primates. Type of test: in vivo. The note with it: 3 mg/kg orally, 90 min prior to capsaicin; cynomolgus NHP; compared to vehicle; p<0.003. The text has this: Capsaicin-induced dermal blood flow (DBF) may be used as a target engagement biomarker to assess CGRP receptor activity in nonhuman primates (NHPs). Methods are adapted from earlier published procedures [Hershey et al., Regulatory Peptides, Volume 127, Issue 1-3, pp. 71-77, 2005].
Animal studies may be performed under protocols approved by the Covance Institutional Animal Care and Use Committee. Cynomolgus NHPs may be used given the close homology between NHP and human CGRP receptor. The study population may include healthy, CGRP antagonist naive cynomolgus NHP males weighing ˜3-4 kg.
Cynomolgus NHPs are enrolled in the study based on prescreening for capsaicin responsiveness. […] NHPs are used in a cross over design in which all NHPs received all doses after a two week wash-out period. Total n=10 NHPs per group. […]
Analysis and Statistics: LDI repeat scans are analyzed using Moor software v.5.2 (Moor Instruments, Wilmington, Del.) by region of interest signal analysis, and Microsoft Excel worksheets are used for averaging the signal from the regions of interest at a given time point. […] Analyzed data is entered into Graphpad PRISM® 4.0 for graphing and a repeated measurement mixed-effect model in SAS® 9.1 is used for statistical analysis. Data is expressed as mean+/−SD.
Turning to `Cc1cc(CNC(=O)c2ccc([C@@H](C)[C@]3(C)CC(=O)NC3=O)cc2)cc(C)n1` [Example 1, N-[(2,6-dimethylpyridin-4-yl)methyl]-4-{(1R)-1-[(3S)-3-methyl-2,5-dioxopyrrolidin-3-yl]ethyl}benzamide], the “group mean inhibition of capsaicin-induced blood flow increase” value was found to be 27.4%.

The test is the same for the next values; noted with them: 30 mg/kg orally, 90 min prior to capsaicin; cynomolgus NHP; compared to vehicle; p<0.00001.
As for `Cc1cc(CNC(=O)c2ccc([C@@H](C)[C@]3(C)CC(=O)NC3=O)cc2)cc(C)n1` [Example 1, N-[(2,6-dimethylpyridin-4-yl)methyl]-4-{(1R)-1-[(3S)-3-methyl-2,5-dioxopyrrolidin-3-yl]ethyl}benzamide], the “group mean inhibition of capsaicin-induced blood flow increase” value is on record as 40.6%.

A further test has as its target T1, hCGRP (human calcitonin gene-related peptide) receptor (Homo sapiens, UniProt O60894+Q16602).
T1 construct: SK-N-MC neuroblastoma cells (ATCC® HTB-10™) that endogenously express the hCGRP receptor; host or cells: SK-N-MC neuroblastoma cells
Put plainly: Inhibition of cAMP production by CGRP receptor antagonists (HTRF) in SK-N-MC cells. Type of test: cell-based. The note with it: SK-N-MC cells endogenously expressing hCGRP receptor; human CGRP 0.8 nM as agonist; Kb=IC50/[1+([Agonist]/EC50)]; mean ± SEM. As to the method:
The hCGRP (human calcitonin gene-related peptide) receptor is functionally coupled to the Gas proteins. Stimulation of hCGRP results in an increased synthesis of intracellular cAMP and can be blocked by the addition of receptor antagonists. Receptor activity is thus a reflection of the amount of cAMP present within cells which can be detected using standard in vitro technology.
Cultured SK-N-MC neuroblastoma cells (ATCC® HTB-10™) that endogenously express the hCGRP receptor are grown in Eagle's Minimum essential medium (HYCLONE™) supplemented with 10% heat-inactivated Fetal bovine serum (FBS; GIBCO®), Non-Essential Amino Acids (GIBCO®), 1 mM sodium pyruvate, 2 mM L-glutamine, 100 U/mL of penicillin, and 10 μg/mL of streptomycin to about 70% confluency. After providing fresh medium, the cells are incubated at 37° C. overnight. On the day of the assay, cells are detached using ACCUTASE® (MP Biomedicals), resuspended in assay buffer [Hank's Balanced Salt Solution/Dulbecco's phosphate-buffered saline with […] each of CaCl2 and MgCl2 mixed 1:2, 3.3 mM 4-(2-hydroxyethyl)-1-piperazineethanesulfonic acid, 0.03% bovine serum albumin, and 0.5 mM 1-methyl-3-isobutylxanthine (as inhibitor of […])], and seeded 3-5K/well into 384-well, poly-D-lysine coated white plates (BD Biosciences).
For dose-response studies, compounds are serially diluted 1:3 in dimethyl sulfoxide and then 1:10 into assay buffer. Human CGRP (0.8 nM; Bachem) as a receptor-specific agonist for the hCGRP receptor is mixed with diluted compound and added to the cells as the challenge stimulant at their EC80 concentrations.
The amount of intracellular cAMP is quantitated using HTRF technology (Cisbio) as per vendor instructions. Briefly, cAMP-d2 conjugate and anti-cAMP-cryptate conjugate in lysis buffer are incubated with the treated cells at RT for 90 min. The HTRF signal is immediately detected using an ENVISION® plate reader (Perkin-Elmer) to calculate the ratio of fluorescence at […]. The raw data are converted to cAMP amount (pmole/well) using a cAMP standard curve generated for each experiment. Relative EC50 values are calculated from the top-bottom range of the concentration response curve using a four-parameter logistic curve fitting program (ACTIVITYBASE® v5.3.1.22 or GENEDATA SCREENER® v12.0.4), and Kb values are estimated as agonist-corrected IC50 values using the equation: Kb=(IC50)/[1+([Agonist]/EC50)]. Estimated Kb values are reported as mean values±SEM, averaged from the number of runs (n).
Following the procedure essentially as described above, the compounds of Examples 1-12 have a Kb measured at human CGRP as shown in Table 3.
As to `Cc1cc(CNC(=O)c2ccc([C@@H](C)[C@]3(C)CC(=O)NC3=O)cc2)cc(C)n1` [Example 1, N-[(2,6-dimethylpyridin-4-yl)methyl]-4-{(1R)-1-[(3S)-3-methyl-2,5-dioxopyrrolidin-3-yl]ethyl}benzamide], the Kb was determined as 0.546 ± 0.226 nM.

With `Cc1cc(C)nc(CNC(=O)c2ccc([C@@H](C)[C@]3(C)CC(=O)NC3=O)cc2)c1` [Example 2, N-[(4,6-dimethyl-2-pyridyl)methyl]-4-[(l R)-1-[(3S)-3-methyl-2,5-dioxo-pyrrolidin-3-yl]ethyl]benzamide], the Kb came out at 2.22 ± 1.47 nM.

As to `Cc1cc(C#N)nc(CNC(=O)c2ccc([C@@H](C)[C@]3(C)CC(=O)NC3=O)cc2)c1` [Example 3, N-[(6-cyano-4-methyl-2-pyridyl)methyl]-4-[(1R)-1-[(3S)-3-methyl-2,5-dioxo-pyrrolidin-3-yl]ethyl]benzamide], the Kb came out at 1.51 ± 0.14 nM.

Consider `Cc1cc(CNC(=O)c2ccc([C@@H](C)[C@]3(C)CC(=O)NC3=O)cc2)cc(C#N)n1` [Example 4, N-[(2-cyano-6-methyl-4-pyridyl)methyl]-4-[(1R)-1-[(3S)-3-methyl-2,5-dioxo-pyrrolidin-3-yl]ethyl]benzamide], for which the Kb turned out to be 23.5 ± 0.925 nM.

`Cc1cc(CNC(=O)c2ccc([C@@H](C)[C@]3(C)CC(=O)NC3=O)cc2)cc(C(C)C)n1` [Example 5, N-[(2-isopropyl-6-methyl-4-pyridyl)methyl]-4-[(R)-1-[(3S)-3-methyl-2,5-dioxo-pyrrolidin-3-yl]ethyl]benzamide]: the Kb was 0.718 ± 0.0045 nM.

On to `Cc1cc(CNC(=O)c2ccc([C@@H](C)[C@]3(C)CC(=O)NC3=O)cc2)cc(C2CC2)n1` [Example 6, N-[(2-cyclopropyl-6-methyl-4-pyridyl)methyl]-4-[(1R)-1-[(3S)-3-methyl-2,5-dioxo-pyrrolidin-3-yl]ethyl]benzamide], for which the antagonist equilibrium constant (Kb) is 0.375 ± 0.172 nM.

Take `Cc1cc(CNC(=O)c2ccc([C@@H](C)[C@]3(C)CC(=O)NC3=O)cc2)nc(C2CC2)c1` [Example 7, N-[(6-cyclopropyl-4-methyl-2-pyridyl)methyl]-4-[(1R)-1-[(3S)-3-methyl-2,5-dioxo-pyrrolidin-3-yl]ethyl]benzamide]: the Kb was 0.582 ± 0.228 nM.

On to `Cc1cc(CNC(=O)c2ccc([C@@H](C)[C@]3(C)CC(=O)NC3=O)cn2)cc(C)n1` [Example 8, N-[(2,6-dimethyl-4-pyridyl)methyl]-5-[(1R)-1-[(3S)-3-methyl-2,5-dioxo-pyrrolidin-3-yl]ethyl]pyridine-2-carboxamide], for which the antagonist dissociation constant (Kb) stood at 1.25 ± 0.0045 nM.

Regarding `Cc1cc(CNC(=O)c2ccc([C@@H](C)[C@]3(C)CC(=O)NC3=O)cn2)cc(C2CC2)n1` [Example 9, N-[(2-cyclopropyl-6-methyl-4-pyridyl)methyl]-5-[(1R)-1-[(3S)-3-methyl-2,5-dioxo-pyrrolidin-3-yl]ethyl]pyridine-2-carboxamide], the Kb stood at 1.15 ± 0.181 nM.

With `CCc1cc(CNC(=O)c2ccc([C@@H](C)[C@]3(C)CC(=O)NC3=O)cc2)cc(C)n1` [Example 10, N-[(2-ethyl-6-methylpyridin-4-yl)methyl]-4-{(1R)-1-[(3S)-3-methyl-2,5-dioxopyrrolidin-3-yl]ethyl}benzamide], the Kb was 0.6 ± 0.0431 nM.

Regarding `Cc1cc(CNC(=O)c2ccc([C@@H](C)[C@]3(C)CC(=O)NC3=O)cc2)cc(C2CCC2)n1` [Example 11, N-[(2-cyclobutyl-6-methylpyridin-4-yl)methyl]-4-{(1R)-1-[(3S)-3-methyl-2,5-dioxopyrrolidin-3-yl]ethyl}benzamide], the antagonist dissociation constant (Kb) was found to be 0.11 ± 0.011 nM.

In the case of `Cc1cc(CNC(=O)c2ccc([C@@H](C)[C@]3(C)CC(=O)NC3=O)cc2)cc(C2CCCC2)n1` [Example 12, N-[(2-cyclopentyl-6-methylpyridin-4-yl)methyl]-4-{(1R)-1-[(3S)-3-methyl-2,5-dioxopyrrolidin-3-yl]ethyl}benzamide], the Kb came out at 0.295 ± 0.056 nM.
